From ChEMBL document CHEMBL3885861, “Open TG-GATES”

Species: Rattus norvegicus
Assay: Open TG-GATES - Regimen: Single
Format: toxicity, organism-based, Sprague-Dawley
Parameters: regimen Single, gender Male, age 6 weeks
Conditions: in vivo, po, 0 mg/kg, route gavage, dose level Control; for APTT / Bas / Eos / Fbg / Hb / Ht / Lym / MCH / MCHC / MCV / Mono / Neu / PT / Plat / RBC / Ret / WBC: tissue Blood; for KIDNEY_L / KIDNEY_R / KIDNEY_TOTAL: tissue Kidney; for LIVER: tissue Liver; for A/G / ALP / ALT / AST / BUN / CRE / Ca / Cl / DBIL / GLC / IP / K / LDH / Na / PL / RALB / TBIL / TC / TG / TP / gamma-GTP: tissue Plasma

C[C@]12CCC(=O)C=C1CC[C@@H]1[C@@H]2CC[C@@]2(C)[C@H]1CC[C@]2(C)O [METHYLTESTOSTERONE]
TERMINAL_BW (3 h): 202.4 g
APTT (3 h): 15.7 s
Bas (3 h): 0%
Eos (3 h): 1%
Fbg (3 h): 277 mg/dL
Hb (3 h): 13.3 g/dL
Ht (3 h): 39%
Lym (3 h): 74.2%
MCH (3 h): 21.5 pg
MCHC (3 h): 34%
MCV (3 h): 63.3 fL
Mono (3 h): 3.6%
Neu (3 h): 20.6%
PT (3 h): 13.2 s
Plat (3 h): 111.8 x10_4/uL
RBC (3 h): 616.6 x10_4/ul
Ret (3 h): 8.5%
WBC (3 h): 71.2 x10_2/uL
KIDNEY_L (3 h): 0.9 g
KIDNEY_R (3 h): 0.9 g
KIDNEY_TOTAL (3 h): 1.8 g
LIVER (3 h): 8.7 g
A/G (3 h): 0.9
ALP (3 h): 1644.6 IU/L
ALT (3 h): 45.4 IU/L
AST (3 h): 80.2 IU/L
BUN (3 h): 9.6 mg/dL
CRE (3 h): 0.2 mg/dL
Ca (3 h): 10.9 mg/dL
Cl (3 h): 105.6 meq/L
DBIL (3 h): 0.01 mg/dL
GLC (3 h): 182.8 mg/dL
IP (3 h): 9.8 mg/dL
K (3 h): 4.4 meq/L
LDH (3 h): 59.4 IU/L
Na (3 h): 142 meq/L
PL (3 h): 136.4 mg/dL
RALB (3 h): 2.6 g/dL
TBIL (3 h): 0.038 mg/dL
TC (3 h): 86.2 mg/dL
TG (3 h): 31.8 mg/dL
TP (3 h): 5.5 g/dL
gamma-GTP (3 h): 1.6 IU/L
TERMINAL_BW (6 h): 202.9 g
APTT (6 h): 17.1 s
Bas (6 h): 0%
Eos (6 h): 0.8%
Fbg (6 h): 299 mg/dL
Hb (6 h): 13.1 g/dL
Ht (6 h): 38.7%
Lym (6 h): 75.6%
MCH (6 h): 21.5 pg
MCHC (6 h): 34%
MCV (6 h): 63.4 fL
Mono (6 h): 3.6%
Neu (6 h): 19.4%
PT (6 h): 13.2 s
Plat (6 h): 112.5 x10_4/uL
RBC (6 h): 612 x10_4/ul
Ret (6 h): 8.2%
WBC (6 h): 68.1 x10_2/uL
KIDNEY_L (6 h): 0.9 g
KIDNEY_R (6 h): 0.9 g
KIDNEY_TOTAL (6 h): 1.7 g
LIVER (6 h): 8.5 g
A/G (6 h): 0.9
ALP (6 h): 1516.2 IU/L
ALT (6 h): 41.8 IU/L
AST (6 h): 72.4 IU/L
BUN (6 h): 9 mg/dL
CRE (6 h): 0.2 mg/dL
Ca (6 h): 10.8 mg/dL
Cl (6 h): 108 meq/L
DBIL (6 h): 0.012 mg/dL
GLC (6 h): 185.4 mg/dL
IP (6 h): 10.1 mg/dL
K (6 h): 4.1 meq/L
LDH (6 h): 65.6 IU/L
Na (6 h): 142.2 meq/L
PL (6 h): 133.4 mg/dL
RALB (6 h): 2.6 g/dL
TBIL (6 h): 0.046 mg/dL
TC (6 h): 79.8 mg/dL
TG (6 h): 40.6 mg/dL
TP (6 h): 5.5 g/dL
gamma-GTP (6 h): 1.4 IU/L
TERMINAL_BW (9 h): 203.4 g
APTT (9 h): 16.8 s
Bas (9 h): 0%
Eos (9 h): 1%
Fbg (9 h): 285.6 mg/dL
Hb (9 h): 13.2 g/dL
Ht (9 h): 38.5%
Lym (9 h): 74.4%
MCH (9 h): 21.3 pg
MCHC (9 h): 34.2%
MCV (9 h): 62.4 fL
Mono (9 h): 3%
Neu (9 h): 21.2%
PT (9 h): 12.8 s
Plat (9 h): 108.1 x10_4/uL
RBC (9 h): 616.6 x10_4/ul
Ret (9 h): 8.5%
WBC (9 h): 59.4 x10_2/uL
KIDNEY_L (9 h): 0.9 g
KIDNEY_R (9 h): 0.9 g
KIDNEY_TOTAL (9 h): 1.8 g
LIVER (9 h): 7.9 g
A/G (9 h): 0.9
ALP (9 h): 1387.4 IU/L
ALT (9 h): 42.2 IU/L
AST (9 h): 76.2 IU/L
BUN (9 h): 7.4 mg/dL
CRE (9 h): 0.2 mg/dL
Ca (9 h): 10.4 mg/dL
Cl (9 h): 105.2 meq/L
DBIL (9 h): 0.01 mg/dL
GLC (9 h): 171.4 mg/dL
IP (9 h): 10.6 mg/dL
K (9 h): 4.1 meq/L
LDH (9 h): 60.6 IU/L
Na (9 h): 141 meq/L
PL (9 h): 137.4 mg/dL
RALB (9 h): 2.5 g/dL
TBIL (9 h): 0.044 mg/dL
TC (9 h): 90.2 mg/dL
TG (9 h): 23 mg/dL
TP (9 h): 5.4 g/dL
gamma-GTP (9 h): 1.4 IU/L
TERMINAL_BW (24 h): 210.8 g
APTT (24 h): 17.4 s
Bas (24 h): 0%
Eos (24 h): 1%
Fbg (24 h): 275 mg/dL
Hb (24 h): 13.2 g/dL
Ht (24 h): 38.6%
Lym (24 h): 76%
MCH (24 h): 21.7 pg
MCHC (24 h): 34.2%
MCV (24 h): 63.6 fL
Mono (24 h): 2.8%
Neu (24 h): 19.6%
PT (24 h): 12.9 s
Plat (24 h): 111.5 x10_4/uL
RBC (24 h): 607.4 x10_4/ul
Ret (24 h): 8.1%
WBC (24 h): 74.8 x10_2/uL
KIDNEY_L (24 h): 0.9 g
KIDNEY_R (24 h): 0.9 g
KIDNEY_TOTAL (24 h): 1.9 g
LIVER (24 h): 9.8 g
A/G (24 h): 0.9
ALP (24 h): 1818.4 IU/L
ALT (24 h): 48.4 IU/L
AST (24 h): 74.2 IU/L
BUN (24 h): 14.8 mg/dL
CRE (24 h): 0.2 mg/dL
Ca (24 h): 11.1 mg/dL
Cl (24 h): 106.2 meq/L
DBIL (24 h): 0.02 mg/dL
GLC (24 h): 194.2 mg/dL
IP (24 h): 8.1 mg/dL
K (24 h): 4.3 meq/L
LDH (24 h): 63.4 IU/L
Na (24 h): 140.8 meq/L
PL (24 h): 149.8 mg/dL
RALB (24 h): 2.7 g/dL
TBIL (24 h): 0.036 mg/dL
TC (24 h): 80.8 mg/dL
TG (24 h): 114.6 mg/dL
TP (24 h): 5.7 g/dL
gamma-GTP (24 h): 1.4 IU/L
